Test results as given in ChEMBL document CHEMBL4354780, “Targeting S. mutans biofilms: a perspective on preventing dental caries” (Medchemcomm, 2019).
Values after ≈ are worked out from the molar mass of the structure shown.

Assays:
Streptococcus mutans [1] = experiment: Antibiofilm activity against Streptococcus mutans assessed as reduction in cell viability at 50 ug/ml relative to control; format: functional
Streptococcus mutans [2] = experiment: Antibiofilm activity against Streptococcus mutans assessed as inhibition of biofilm formation by measuring drug level causing induction of micro-colony phenotype; format: functional
Streptococcus mutans [3] = experiment: Antibiofilm activity against Streptococcus mutans assessed as inhibition of biofilm formation; format: functional, organism-based; conditions: for IC50: Streptococcus mutans
Streptococcus mutans [4] = experiment: Antibacterial activity against Streptococcus mutans assessed as inhibition of planktonic growth relative to control; format: organism-based
[5] = Binding affinity to Streptococcus mutans GtfB
[6] = Binding affinity to Streptococcus mutans GtfC
Streptococcus mutans [7] = experiment: Antibiofilm activity against Streptococcus mutans assessed as inhibition of biofilm formation at 12.5 ug/ml relative to control; format: functional
Streptococcus mutans [8] = experiment: Antibiofilm activity against Streptococcus mutans assessed as inhibition of biofilm formation on hydroxyapatite surface at 5 ug/ml relative to control; format: functional
Streptococcus mutans [9] = experiment: Antibiofilm activity against Streptococcus mutans assessed as reduction in biomass at 0.63 ug/ml relative to control; format: functional
[10] = Inhibition of Streptococcus mutans VicK autophosphorylation activity
[11] = Inhibition of Streptococcus mutans CiaH autophosphorylation activity
[12] = Inhibition of Streptococcus mutans LiaS autophosphorylation activity
Streptococcus mutans [13] = experiment: Antibiofilm activity against Streptococcus mutans assessed as inhibition of biofilm formation at 200 ug/ml after 4 hrs by crystal violet staining based assay relative to control; format: functional
Streptococcus mutans [14] = experiment: Antibiofilm activity against Streptococcus mutans assessed as inhibition of biofilm formation at 200 ug/ml after 4 hrs by Congo red staining based assay relative to control; format: functional
Streptococcus mutans [15] = experiment: Antibiofilm activity against Streptococcus mutans assessed as decrease in biofilm viability at 0.053 to 53 uM by LIVE/DEAD staining based assay relative to control; format: functional
Streptococcus mutans [16] = experiment: Antibiofilm activity against 24 hrs-old biofilm of Streptococcus mutans assessed as reduction in cell viability relative to control; format: functional
Streptococcus mutans [17] = experiment: Antibiofilm activity against 24 hrs-old biofilm of Streptococcus mutans assessed as reduction in cell viability at 5 ug/ml relative to control; format: functional
Streptococcus mutans [18] = experiment: Antibiofilm activity against 24 hrs-old biofilm of Streptococcus mutans assessed as reduction in cell viability at 10 ug/ml relative to control; format: functional
Sortase A = biological target: T1, Sortase A (Streptococcus mutans, UniProt Q8CM62); experiment: Binding affinity to Streptococcus mutans Sortase A
T1 sequence (Q8CM62 whole entry): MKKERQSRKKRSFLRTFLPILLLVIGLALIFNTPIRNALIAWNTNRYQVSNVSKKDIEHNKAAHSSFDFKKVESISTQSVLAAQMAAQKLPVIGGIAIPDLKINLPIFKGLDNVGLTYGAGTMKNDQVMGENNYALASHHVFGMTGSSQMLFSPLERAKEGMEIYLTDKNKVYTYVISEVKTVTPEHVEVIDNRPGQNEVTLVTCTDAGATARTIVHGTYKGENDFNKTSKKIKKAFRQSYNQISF

Streptococcus mutans [19] = experiment: Antibacterial activity against Streptococcus mutans; format: organism-based
Streptococcus mutans [20] = experiment: Antibiofilm activity against Streptococcus mutans assessed as inhibition of biofilm formation at 250 uM on saliva-coated glass slides relative to control; format: functional
Streptococcus mutans [21] = experiment: Inhibition of Streptococcus mutans F-ATPase activity relative to control; conditions: concentration not given here
Streptococcus mutans [22] = experiment: Antibiofilm activity against Streptococcus mutans assessed as inhibition of biofilm formation on using surface coated compound at 0.06 uM relative to control; format: functional
Streptococcus mutans [23] = experiment: Antibiofilm activity against Streptococcus mutans assessed as inhibition of biofilm formation by measuring reduction in cell adherence at sub-MIC level relative to control; format: functional

Structure (SMILES): Cc1cccc(N/C=C2/C=C(c3ccc(Cl)cc3)OC2=O)n1
- inhibition at 50 µg/mL (Streptococcus mutans [1]): 75%

Structure (SMILES): C=CCc1ccc(O)c(OC)c1 [EUGENOL]
- INH (Streptococcus mutans [2]): 0.3125 µg/mL

Structure (SMILES): CCCCCCCCCCCCCCCc1c[nH]c(N)n1.Cl
- IC50 (Streptococcus mutans [3]): 0.94 µM
- growth inhibition (GI) (Streptococcus mutans [4]): < 13%

Structure (SMILES): NC(=O)c1ccccc1NC(=O)c1cc2cc([N+](=O)[O-])ccc2s1
- Kd [5]: 3.7 µM
- Kd [6]: 0.0469 µM
- inhibition at 12.5 µg/mL (Streptococcus mutans [7]): 85%

Structure (SMILES): Cc1cc(O)c2c(c1)C(=O)c1cc(O)cc(O)c1C2=O [EMODIN]
- inhibition at 5 µg/mL (Streptococcus mutans [8]): 90%

Structure (SMILES): CCC(C)C1(O)C(C)C(=O)c2c(c(OC)c3ccc(-c4ccc5c(Cl)c6c(c(O)c5c4O)C(=O)C(C)C(O)(C(C)C)C6/C(=C\C(=O)O)OC)c(O)c3c2O)C1/C(C)=C\C(=O)O (stereo not given)
- inhibition at 0.63 µg/mL (Streptococcus mutans [9]): 60%
- IC50 [10]: 2.53 mg/L (≈ 2.94 µM)
- IC50 [11]: 4.29 mg/L (≈ 4.98 µM)
- IC50 [12]: 4.96 mg/L (≈ 5.76 µM)

Structure (SMILES): CCCCCCCCCCCCCCCCCC(=O)Oc1cc(C(=O)O[C@@H]2Cc3c(O)cc(O)cc3O[C@@H]2c2cc(OC(=O)CCCCCCCCCCCCCCCCC)c(O)c(OC(=O)CCCCCCCCCCCCCCCCC)c2)cc(OC(=O)CCCCCCCCCCCCCCCCC)c1O
- inhibition at 200 µg/mL (Streptococcus mutans [13]): 100%
- inhibition at 200 µg/mL (Streptococcus mutans [14]): 100%

Structure (SMILES): CO[C@H](CC(=O)O)[C@@H](C)C(=O)[C@H](C)/C=C(\C)[C@H]1OC(=O)[C@H](O)[C@H](O)/C=C/[C@H](C)CCC[C@@H]1C
- inhibition (INH) (Streptococcus mutans [15]): 55 - 65%

Structure (SMILES): O=C1C=C(Br)/C(=C/Br)O1
- inhibition (INH) (Streptococcus mutans [16]): 60%

Structure (SMILES): COc1ccc(CCNc2nc3ccccc3nc2NCCc2ccc(OC)cc2)cc1
- inhibition at 5 µg/mL (Streptococcus mutans [17]): 46%
- inhibition at 10 µg/mL (Streptococcus mutans [18]): 79%

Structure (SMILES): O=c1c(O)c(-c2ccc(O)cc2O)oc2cc(O)cc(O)c12 [MORIN]
- IC50 (Sortase A): 27.2 µM

Structure (SMILES): COc1cc(/C=C/C(=O)CC(=O)/C=C/c2ccc(O)c(OC)c2)ccc1O [CURCUMIN]
- IC50 (Sortase A): 10.2 µM
- MIC (Streptococcus mutans [19]): 125 µM

Structure (SMILES): O=C(/C=C/c1ccccc1)c1ccccc1 [CHALCONE]
- inhibition at 250 µM (Streptococcus mutans [20]): 90%
- IC50 (Sortase A): 5 µM

Structure (SMILES): O=C(O[C@@H]1Cc2c(O)cc(O)cc2O[C@@H]1c1cc(O)c(O)c(O)c1)c1cc(O)c(O)c(O)c1 [EPIGALOCATECHIN GALLATE]
- MIC (Streptococcus mutans [19]): 31.25 mg/L
- inhibition (Streptococcus mutans [21]): 50%
- MBIC90 (Streptococcus mutans [3]): 15.6 µg/mL

Structure (SMILES): O=C1C=C/C(=C\Br)O1
- inhibition at 0.06 µM (Streptococcus mutans [22]): 63%

Structure (SMILES): Oc1cc(O)cc(/C=C/c2ccc(O)c(O)c2)c1 [PICEATANNOL]
- Kd [6]: 14.6 µM
- IC50 (Streptococcus mutans [3]): 52 µM

Structure (SMILES): CCC[C@@H]1CCC[C@]2(CCC)C(=O)CCC[C@@H]12
- inhibition (INH) (Streptococcus mutans [23]): 50%
- MIC (Streptococcus mutans [19]): 156.25 mg/L
- MBIC50 (Streptococcus mutans [3]): 39 µg/mL

Structure (SMILES): Oc1ccc(/C=C/c2cc(O)cc(O)c2)cc1 [RESVERATROL]
- Kd [5]: 144 µM
- Kd [6]: 510 µM

Structure (SMILES): C[C@H]1/C=C/[C@H]2OC(C)(C)O[C@H]2C(=O)O[C@H](c2cccc(CCCCC(=O)O)c2)[C@@H](C)CCC1
- MBIC50 (Streptococcus mutans [3]): 63 µM
